# pIC50: −log10 of the molar value. Read-outs that look alike come from different tables or passages of the source.
# Tested on: human Simpson–Golabi–Behmel syndrome (SGBS) adipocytes
# Assay: Lipolysis in SGBS adipocytes (FA, glycerol release, DAG content)
# Assay type: cell-based
# Details: for pIC50: Homo sapiens, 1 h preincubation, isoproterenol 1 μM
# Method: Figure 3 NG-497 inhibits lipolysis in human SGBS and primary human adipocytes. SGBS adipocytes were preincubated with NG-497 for 1 h at the indicated concentrations. Subsequently, lipolysis was stimulated with isoproterenol (1 μM) and (a) FA and (b) glycerol release was determined after 1 h using commercial kits. (c) Dose-dependent inhibition of isoproterenol-stimulated FA release from SGBS adipocytes by the HSL inhibitor 76-068 (HSLi). […] (e) DAG accumulation in SGBS adipocytes was analyzed by thin-layer chromatography (TLC) following 1 h incubation with HSLi (25 μM), NG-497 (40 μM), and a combination of both inhibitors. (f) Primary human adipocytes were prelabeled with 1 μCi [9,10-^3H] oleic acid per well for 12 h. Subsequently, basal and Forskolin (5 μM)-stimulated release of radioactivity was determined via liquid scintillation over a period of 2 h in the presence or absence of NG-497 (40 μM). FA release was calculated based on FA concentrations in conditioned media after 2 h as determined using a commercial kit. (g) Primary human adipocytes were preincubated in the presence or absence of NG-497 (40 μM) for 1 h. Subsequently, the medium was changed and FA release was monitored over a period of 3 h under the indicated conditions. Data are presented as mean ± SD. Statistical significance was determined via ANOVA followed by Bonferroni post hoc test (^#p < 0.05; ^##p < 0.01; ^###p < 0.001). TEXT PRINTED IN THE PICTURE: (a) NG-497: IC50 (μM) 1.5 ± 0.5 | (b) NG-497: IC50 (μM) 1.5 ± 0.5 | (c) HSLi: IC50 (nM) 100 ± 15 | (d) NG-497: IC50 (μM) 0.5 ± 0.1 […]
# Lipidomic analysis. HepG2 cells were treated for 3 hours with 40 µM NG-497 or DMSO as control. Subsequently, cells were washed three times with PBS, harvested, and extracted with 700 µl MTBE:MeOH (10:3, v:v) for 1 hour at 4 °C on a Thermomix shaker at 1,400 rpm. 200 µl H2O were added, shaken for another 20 min, centrifuged for 10 min at 20,000 g for phase separation.
# 500 µl of the organic phase was transferred and evaporated under a stream of nitrogen. […] The aqueous phase was dried, the protein pellet incubated overnight with 400 µl NaOH/SDS (0.3 M/0.1%) and total protein content analyzed by the BCA protein assay (Thermo Fisher Scientific) according to the manufacturer’s instructions.
# Lipid samples were separated on an Agilent 1290 Infinite II UHPLC with gradient elution over a Zorbax Extend-C18 reversed phase column (2.1 x 50 mm, 1.8µm) at 50°C. […] Samples were analyzed on an Agilent 6560 Ion Mobility Q-ToF mass spectrometer in Qtof-only mode over a scan range of 100 to 1700 m/z in negative mode and 150 to 1700 m/z in positive mode with automatic MS/MS generation. All samples were analyzed in triplicates using iterative acquisition mode to increase the number of MS/MS spectra for better annotation. […]
smiles,measurement,setting,value
CCOc1ccc(-c2cc(OC)cc(C(=O)OC(C)C)n2)cc1 [NG-497],pIC50,"1 h, read-out: IC50 of isoproterenol-stimulated FA release",5.82
same,pIC50,"1 h, read-out: IC50 of isoproterenol-stimulated glycerol release",5.82
same,DAG accumulation under combined inhibition of HSL and ATGL,"NG-497 40 μM combined with HSLi 25 μM, 1 h, TLC",prevented DAG accumulation
same,effect on lipolysis,concentrations ≥10 μM,almost completely abolished lipolysis

# Source: PMC9011347, “Small-Molecule Inhibitors Targeting Lipolysis in Human Adipocytes” (Journal of the American Chemical Society, 2022)
